This data set relates to HR+, HER2-negative locally advanced or metastatic breast cancer. Put plainly: Study CBKM120F2302, randomized double-blind placebo-controlled Phase-III trial: buparlisib plus fulvestrant vs. placebo plus fulvestrant. The data set is classed as in vivo, human. Conditions: Full population.

Each structure is given as a SMILES string.

From the text: For the Study, patients were selected according to the following inclusions and exclusion criteria:
Inclusion Criteria: • Locally advanced or metastatic breast cancer • HER2-negative and hormone receptor-positive status (common breast cancer classification tests) • Postmenopausal woman • A tumor sample must be shipped to a Novartis designated laboratory for identification of biomarkers (PI3K activation status) • Progression or recurrence of breast cancer while on or after aromatase inhibitor treatment • Measurable disease or non measurable disease bone lesions in the absence of measurable disease as per Response Evaluation Criteria in Solid Tumors 1.1 • Adequate bone marrow and organ function defined by laboratory values
Approximately 1200 patients were to be randomized in a 1:1 ratio. Enrollment was to continue until a minimum of 842 patients were randomized in the main cohort, including ≥334 patients with activated PI3K pathway status. […]
The PI3K pathway activation status was defined based on analysis of archival tumor samples as: • A mutation in the PIK3CA gene in one or more of exons 1, 7, 9, or 20 as assessed by Sanger sequencing, and/or • Loss of phosphotensin homolog (PTEN) expression (<10% of tumor cells expressing PTEN at 1+ level by immunohistochemistry [IHC] and no tumor cells staining with an intensity >1+) […]

Regarding `Nc1cc(C(F)(F)F)c(-c2cc(N3CCOCC3)nc(N3CCOCC3)n2)cn1` [buparlisib, 5-(2,6-di-morpholin-4-yl-pyrimidin-4-yl)-4-trifluoromethyl-pyridin-2-ylamine], the “Overall safety and tolerability profile” value was “consistent with prior experience in single-arm and combination studies and with the class effects of PI3K inhibitors”.
